The results in this text go back to US12509450B2, “Solid forms of a dual RAF/MEK inhibitor” (Verastem, Inc., priority 2022, dated 2025).

Series [1] in a line: Stability of Form 1 under stressed conditions (XRPD, UPLC purity, KF water content). The series is classed as physicochemical. The settings on record: for Purity (Week 1): week 1, UPLC; for Purity (Week 4): week 4, UPLC; for Water content (Week 5): week 5, KF. How it is done:
X-ray powder diffraction patterns were obtained using a Bruker D8 equipped with a Cu Kα radiation (40 kV, 40 mA) source (λ=1.54°A), a 9-position sample holder, and a θ-2θ goniometer fitted with a Ge monochromator. The incident beam passes through a 2.0 mm divergence slit followed by a 0.2 mm antiscatter slit. The diffracted beam passes through an 8.0 mm receiving slit with 2.5° Soller slits followed by a LYNXEYE super speed detector. Samples were prepared on polished, zero-background silicon plates and run using a low background, airtight specimen dome.
A Mettler Toledo DL39 Coulometric KF Titrator was used to determine the apparent water content in samples. About 90-100 mg of the solid was used for titration. To limit the exposure of the solution to the air, the titrator opening was closed by a stopper immediately after adding samples. HYDRANAL-Coulomat AD was used as the titrant added at 40% speed. The mixing time used was 30 seconds prior to analysis.
The purity of the sample was determined using the method provided by the Analytical Development at JM. Data were collected using an Agilent […] Series UPLC system and analyzed using Chemstation software.
Form 1 solids were stored in 40° C./75% RH or 30° C./65% RH conditions. The XRPD and UPLC purity were measured at week 1 and week 4 time points. […] Additionally, water content was measured by KF at Week 5.

Series [2] is described as follows: Dynamic vapor sorption (DVS) moisture sorption isotherm. The series is classed as physicochemical. As to conditions: for solid form after DVS (XRPD): XRPD of post-DVS sample. As for the experimental part:
Samples were analyzed using a TA Instruments Q5000SA gravimetric water sorption analyzer. The weight of the sample was continuously monitored and recorded with respect to the relative humidity (RH) and time. Samples of 5-10 mg were placed in a tared, hermetically sealed aluminum DVS pan under ambient conditions. The sample pan was punctured prior to being loaded into the humidity chamber. A moisture sorption isotherm was performed at 25° C. at 10% RH intervals over a 0-90% RH range. Three cycles were carried out. If the mass gain or loss on a sorption step was less than 0.1% over 15 minutes, the next humidity interval would begin. If weight continued to change after 120 minutes at a given step, the step would time out and proceed to the next humidity interval.

`CNS(=O)(=O)Nc1nccc(Cc2c(C)c3ccc(Oc4ncccn4)cc3oc2=O)c1F` [Form 1]: in series [1] (30° C./65% RH), the “XRPD (Week 1)” value is on record as “Form 1”, the “Purity (Week 1)” value stood at 99.2%, the “XRPD (Week 4)” value is on record as “Form 1” and the “Purity (Week 4)” value is 99.2%. Also, the “Water content (Week 5)” value in series [1] (30° C./65% RH) is given as 0.6%. Besides, the “purity determined by UPLC on storage” value in series [1] (40° C./75% RH or 30° C./65% RH, week 1 and week 4) is “remained statistically unchanged”. The “water content by KF on storage versus initial” value in series [1] (40° C./75% RH or 30° C./65% RH, week 5) is recorded as “consistent with initial water content”. Besides, in series [1] (40° C./75% RH), the “XRPD (Week 1)” value is recorded as “Form 1”, the “Purity (Week 1)” value was determined as 99.2%, the “XRPD (Week 4)” value is reported as “Form 1” and the “Purity (Week 4)” value amounted to 99.2%. Also, the “Water content (Week 5)” value in series [1] (40° C./75% RH) is on record as 0.5%. Moreover, in series [2] (DVS, 25° C.), the hygroscopicity entry is “slightly hygroscopic”, the “weight change between 0-90% RH” value is “about 1.8%” and the “weight gain observed between 80-90% RH” value was above 1%. Besides, the “solid form after DVS (XRPD)” value in series [2] was “no form change”.
Turning to `CNS(=O)(=O)Nc1nccc(Cc2c(C)c3ccc(Oc4ncccn4)cc3oc2=O)c1F` [Form 8], in series [2] (DVS, 25° C.), the hygroscopicity result was “slightly hygroscopic” and the “weight gain observed between 80-90% RH” value was above 0.27%. For the same molecule, the “weight change between 0-80% RH” value in series [2] (DVS, 25° C., 0-80% RH) was “up to 0.44%”. For the same molecule, the “weight gain at above 80% RH” value in series [2] (DVS, 25° C., above 80% RH) is reported as “at least 1.12%”. Besides, in series [2], the “solid form after DVS (XRPD)” value is listed as “converted to Form 1”.
For `CNS(=O)(=O)Nc1nccc(Cc2c(C)c3ccc(Oc4ncccn4)cc3oc2=O)c1F.[K+]` [Form 10], in series [2] (DVS, 25° C.), the hygroscopicity entry is given as “hygroscopic” and the “weight change between 0-90% RH” value is given as “about 5.5%”. Besides, the “solid form after DVS (XRPD)” value in series [2] is on record as “converted to Form 1”.
